Where a SMILES comes first, the peptide text is derived from it.
Experiments:
[1] = biological target: T1, human VPS4 MIT domain (residues 1–84) (Homo sapiens, UniProt Q9UN37); test: Isothermal titration calorimetry, titrant into VPS4A MIT domain; type: binding; settings: ITC, 25°C; for -TΔS / N (stoichiometry) / ΔG / ΔH: n = 2–4
T1 construct: The MIT domain (residues 1–84) of human VPS4A (UniProt Q9UN37); GST with human rhinovirus 3C cleavage site (N, cleaved yes); made in house; host or cells: Escherichia coli T7 Express lysY/Iq
T1 sequence (Q9UN37 1-84): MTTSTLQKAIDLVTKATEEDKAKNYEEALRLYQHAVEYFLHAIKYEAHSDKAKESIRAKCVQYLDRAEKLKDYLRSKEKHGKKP
Experimental: Proteins were expressed in Escherichia coli T7 Express lysY/I^q cells (New England Biolabs) in 2×TY medium at 37°C to an OD600 of 0.8–1.2 before inducing protein expression by addition of 0.4 mM isopropyl β-D-thiogalactopyranoside (IPTG). Expression of GST-tagged pUL71 truncations was induced at 37°C for 3 h, whereas expression of GST-VPS4A MIT domain was induced at 22°C for 16 h. Cells were resuspended at 4°C in GSH lysis buffer (20 mM Tris pH 7.5, 300 mM NaCl, 0.5 mM MgCl2, 1.4 mM β-mercaptoethanol, 0.05% TWEEN-20) supplemented with 200–400 U bovine DNase I (Merck) and 200 μL EDTA-free protease inhibitor cocktail (Merck) before lysis using a TS series cell disruptor (Constant Systems) at 24 kpsi. Lysates were cleared by centrifugation (40,000×g, 30 min, 4°C) and incubated with glutathione Sepharose 4B (Cytiva) for 1 h at 4°C before extensive washing (≥ 20 column volumes) with GSH wash buffer (20 mM Tris pH 7.5, 300 mM NaCl, 1 mM DTT) and elution using wash buffer supplemented with 25 mM reduced L-glutathione. GST-tagged pUL71 truncations were subjected to size-exclusion chromatography (SEC) using a Superdex 200 16/600 column (Cytiva) equilibrated in GSH wash buffer. For GST-VPS4A MIT domain, the GST tag was removed by supplementing the pooled SEC fractions containing the protein of interest with 0.5 mM EDTA and incubating overnight at 4°C with 50 μg of GST-tagged human rhinovirus 3C protease. Free GST and uncleaved GST-VPS4A MIT domain were captured using glutathione Sepharose and the cleaved complex was subjected to SEC using an S75 10/300 GL column (Cytiva) equilibrated in 50 mM HEPES pH 8, 100 mM NaCl, 0.5 mM Tris(2-carboxyethyl)phosphine (TCEP).
Where necessary, proteins were exchanged into ITC buffer (50 mM HEPES pH 8, 100 mM NaCl, 0.5 mM TCEP) by SEC using Superdex 200 (GST-tagged titrants) or 75 (VPS4 MIT domain) 10/300 GL columns (Cytiva), or by extensive dialysis using tubing with a 3.5 kDa molecular weight cut-off (Pierce). Protein concentrations were estimated from A280 using extinction coefficients calculated from the protein sequence. Peptides encoding residues 166–181 of human CHMP6 or various truncations of HCMV pUL71 were purchased from Genscript at >95% purity and the dry peptides were resuspended in ITC buffer to the desired concentration. ITC experiments were performed at 25°C using an MicroCal PEAQ-ITC automated calorimeter (Malvern Panalytical). Titrants (GST-pUL71, GST-CHMP6 or peptides) were titrated into VPS4A MIT domain using either 19×2 μL or 12×3 μL injections (S1 Table). Data were analysed using the MicroCal PEAQ-ITC analysis software (Malvern Panalytical) and fitted using a one-site binding model.
S1 Table. Thermodynamic properties of the interactions with VPS4 MIT domain. As quantitated by isothermal titration calorimetry (ITC). Data for independent experiments are shown. For all, the cell contained human VPS4 MIT domain (residues 1-84) and pUL71 is from HCMV unless stated otherwise. –, no binding detected.

[2] = biological target: VPS4A MIT domain (residues 1–84) (human) (UniProt Q9UN37); test: ITC; titrants (GST-pUL71, GST-CHMP6 or peptides) titrated into VPS4A MIT domain in the cell; 25°C; 50 mM HEPES pH 8, 100 mM NaCl, 0.5 mM TCEP; 19×2 μL or 12×3 μL injections; one-site binding model
yeast Vps4 = settings: reported; cited from earlier work

CC[C@H](C)[C@H](NC(=O)[C@H](CCC(N)=O)NC(=O)[C@@H](N)CCC(=O)O)C(=O)N[C@@H](CCC(=O)O)C(=O)N[C@@H](CC(C)C)C(=O)N1CCC[C@H]1C(=O)N[C@@H](CCC(=O)O)C(=O)N[C@H](C(=O)N1CCC[C@H]1C(=O)N[C@@H](CO)C(=O)N[C@@H](CCC(=O)O)C(=O)N1CCC[C@H]1C(=O)N[C@@H](CC(C)C)C(=O)N1CCC[C@H]1C(=O)N[C@@H](CCC(=O)O)C(=O)N[C@@H](CCCCN)C(=O)O)C(C)C [CHMP6 peptide] (H-EQIELPEVPSEPLPEK-OH; N-terminus and C-terminus assumed)
-TΔS ([1]; pH 8, mean ± SD): -5.52 ± 0.58 kcal/mol | N (stoichiometry) ([1]; pH 8, mean ± SD): 1.02 ± 0.17 | ΔG ([1]; pH 8, mean ± SD): -6.85 ± 0.38 kcal/mol | ΔH ([1]; pH 8, mean ± SD): -1.33 ± 0.51 kcal/mol | -T∆S ([1]; replicate 1, pH 8): -6.36 kcal/mol | N (sites) ([1]; replicate 1, pH 8): 1 | ∆G ([1]; replicate 1, pH 8): -7.2 kcal/mol | ∆H ([1]; replicate 1, pH 8): -0.844 kcal/mol | -T∆S ([1]; replicate 2, pH 8): -5.11 kcal/mol | N (sites) ([1]; replicate 2, pH 8): 0.79 | ∆G ([1]; replicate 2, pH 8): -7.15 kcal/mol | ∆H ([1]; replicate 2, pH 8): -2.04 kcal/mol | -T∆S ([1]; replicate 3, pH 8): -5.14 kcal/mol | N (sites) ([1]; replicate 3, pH 8): 1.1 | ∆G ([1]; replicate 3, pH 8): -6.46 kcal/mol | ∆H ([1]; replicate 3, pH 8): -1.32 kcal/mol | -T∆S ([1]; replicate 4, pH 8): -5.46 kcal/mol | N (sites) ([1]; replicate 4, pH 8): 1.17 | ∆G ([1]; replicate 4, pH 8): -6.57 kcal/mol | ∆H ([1]; replicate 4, pH 8): -1.1 kcal/mol

CC[C@H](C)[C@H](NC(=O)[C@@H](N)CCC(=O)O)C(=O)N[C@@H](CC(=O)O)C(=O)N1CCC[C@H]1C(=O)N[C@@H](CC(C)C)C(=O)N[C@@H](CC(C)C)C(=O)N[C@@H](Cc1c[nH]cn1)C(=O)N[C@@H](CCC(N)=O)C(=O)N[C@@H](CCC(=O)O)C(=O)N[C@H](C(=O)NCC(=O)N[C@@H](CC(C)C)C(=O)N[C@@H](Cc1ccc(O)cc1)C(=O)N[C@@H](CCC(N)=O)C(=O)N[C@@H](C)C(=O)N[C@@H](CC(C)C)C(=O)N1CCC[C@H]1C(=O)N[C@@H](CC(N)=O)C(=O)N[C@@H](C)C(=O)N[C@H](C(=O)N[C@H](C(=O)N[C@@H](CCC(=O)O)C(=O)N[C@@H](C)C(=O)N1CCC[C@H]1C(=O)N[C@@H](CO)C(=O)N[C@@H](CCC(=O)O)C(=O)O)[C@@H](C)O)C(C)C)[C@@H](C)O [HHV6 pUL71 peptide] (H-EIDPLLHQETGLYQALPNAVTEAPSE-OH; N-terminus and C-terminus assumed)
-TΔS ([1]; pH 8, mean ± SD): 1.01 ± 1.62 kcal/mol | N (stoichiometry) ([1]; pH 8, mean ± SD): 1.18 ± 0.03 | ΔG ([1]; pH 8, mean ± SD): -6.16 ± 0.11 kcal/mol | ΔH ([1]; pH 8, mean ± SD): -7.17 ± 1.52 kcal/mol | -T∆S ([1]; replicate 1, pH 8): -0.117 kcal/mol | N (sites) ([1]; replicate 1, pH 8): 1.16 | ∆G ([1]; replicate 1, pH 8): -6.26 kcal/mol | ∆H ([1]; replicate 1, pH 8): -6.14 kcal/mol | -T∆S ([1]; replicate 2, pH 8): 0.27 kcal/mol | N (sites) ([1]; replicate 2, pH 8): 1.22 | ∆G ([1]; replicate 2, pH 8): -6.18 kcal/mol | ∆H ([1]; replicate 2, pH 8): -6.45 kcal/mol | -T∆S ([1]; replicate 3, pH 8): 2.87 kcal/mol | N (sites) ([1]; replicate 3, pH 8): 1.17 | ∆G ([1]; replicate 3, pH 8): -6.04 kcal/mol | ∆H ([1]; replicate 3, pH 8): -8.91 kcal/mol

CC[C@H](C)[C@H](NC(=O)[C@H](CCC(=O)O)NC(=O)[C@H](CCCNC(=N)N)NC(=O)[C@H](CCC(=O)O)NC(=O)[C@H](Cc1c[nH]cn1)NC(=O)[C@H](CC(N)=O)NC(=O)[C@@H](NC(=O)[C@@H]1CCCN1)[C@@H](C)O)C(=O)N[C@@H](CC(C)C)C(=O)N[C@@H](CC(=O)O)C(=O)N[C@@H](CC(C)C)C(=O)N[C@@H](CCSC)C(=O)N[C@@H](CCCNC(=N)N)C(=O)N[C@@H](Cc1c[nH]cn1)C(=O)N[C@@H](CO)C(=O)N1CCC[C@H]1C(=O)N[C@@H](CC(=O)O)C(=O)N[C@H](C(=O)N1CCC[C@H]1C(=O)N[C@@H](CCCNC(=N)N)C(=O)N[C@@H](CCC(=O)O)C(=O)N[C@@H](C)C(=O)N[C@H](C(=O)N[C@@H](CCSC)C(=O)N[C@@H](CO)C(=O)N1CCC[C@H]1C(=O)O)C(C)C)C(C)C [pUL71 (300–325) peptide] (H-PTNHEREILDLMRHSPDVPREAVMSP-OH)
Kd ([1]; 50 mM HEPES pH 8, 100 mM NaCl, 0.5 mM TCEP, one-site model, mean ± SD, n = 2–4 independent experiments): 5.59 ± 0.34 µM

CHMP6 MIM2 peptide (from UniProt Q96FZ7 166-181)
Kd [2]: 11.2 µM | dH [2]: -1.33 kcal/mol | stoichiometry N [2]: 1.02

GST-CHMP6: GST-tagged CHMP6 MIM2 motif (residues 168–181)
-TΔS ([1]; pH 8, mean ± SD): -4.81 ± 0.62 kcal/mol | ΔG ([1]; pH 8, mean ± SD): -7.18 ± 0.12 kcal/mol | -T∆S ([1]; replicate 1, pH 8): -5.25 kcal/mol | Kd ([1]; replicate 1, pH 8): 4.76 µM | N (sites) ([1]; replicate 1, pH 8): 0.786 | ∆G ([1]; replicate 1, pH 8): -7.26 kcal/mol | ∆H ([1]; replicate 1, pH 8): -2.02 kcal/mol | -T∆S ([1]; replicate 2, pH 8): -4.37 kcal/mol | Kd ([1]; replicate 2, pH 8): 6.32 µM | N (sites) ([1]; replicate 2, pH 8): 0.894 | ∆G ([1]; replicate 2, pH 8): -7.09 kcal/mol | ∆H ([1]; replicate 2, pH 8): -2.72 kcal/mol

GST-pUL71 (283–336) (domain or fragment)
Kd [2]: 3.02 µM | dH [2]: -10.1 kcal/mol | stoichiometry N [2]: 0.91

GST-pUL71 (300–325) (domain or fragment)
Kd [2]: 2.25 µM | dH [2]: -6.66 kcal/mol | stoichiometry N [2]: 1.22

GST-pUL71 (300–361) (domain or fragment)
Kd [2]: 2.98 µM | dH [2]: -10.1 kcal/mol | stoichiometry N [2]: 0.87

GST-pUL71(283–361) (domain or fragment)
Kd [2]: 2.84 µM | dH [2]: -9.05 kcal/mol | stoichiometry N [2]: 1

HHV6 pU44 vMIM2 peptide (residues 174–199) (from UniProt A0A140AK71 174-199)
Kd [2]: 30.9 µM | dH [2]: -7.17 kcal/mol | stoichiometry N [2]: 1.18

pUL71 (300–325) peptide
dH [2]: -6.22 kcal/mol | stoichiometry N [2]: 1.38

B1: Vps20: the yeast CHMP6 homologue (protein, UniProt Q04272 2-221, looked up)
Vacuolar protein …: GQKSSKVHITKTDRAILEVKRSKDEIHKFTRRTDNLILVEKSQLKDLIRKNPENYKSNMKVRFLLKRIHYQEHLLQQASDQLINLENMVSTLEFKMVEKQFINGLKNGNEILKKLNKEFSNVDELMDDVQDQIAYQNEINETLSRSLVGTSNYEDDLDKELDALESELNPEKMNNAKVANMPSTEGLPSLPQGEQTEQKEREEFATEERSDTKEPLALLS
Kd (yeast Vps4): 188 µM

B2: Vfa1: yeast protein Vfa1 that is proposed to positively regulate Vps4 activity (protein, UniProt P40080 1-203, looked up)
VPS4-associated protein 1: MINEYVARKVALKDMQPCAICSKPSTTVLYNASGPDWLYTCEIHLQDNPQFVIPLYSTEYNEAVAQLKLVKGKMDSLTSAQTQLGSWDGWVTKIFSKKEKETNNSKDPDPTTTDSTDTSPQAKNDAEILSETKKQYSKILDKVTELQRKNRKYELAKIMFESRLLRKRTEQVNRERYLKEQENYSNTDPEELLRKHVFPSVPK
Kd (yeast Vps4): 1.8 µM | fold tighter binding to Vps4 than Vps20 (yeast Vps4): approximately 100 fold
